Test results published in the NIST ThermoML archive (doi:10.1021/je034087q).

Test: xn = mol fraction of the nth substance listed
Conditions: 323.15 K

CCCCC [pentane] + O=C=O
Conditions	mass density [kg/m3]
9400 kPa, Fluid (supercritical or subcritical phases), x2 = 0.939	522
9410 kPa, Fluid (supercritical or subcritical phases), x2 = 0.916	590
9440 kPa, Fluid (supercritical or subcritical phases), x2 = 0.87	630
9480 kPa, Fluid (supercritical or subcritical phases), x2 = 0.901	601
9510 kPa, Fluid (supercritical or subcritical phases), x2 = 0.939	534
9550 kPa, Fluid (supercritical or subcritical phases), x2 = 0.791	688
9560 kPa, Fluid (supercritical or subcritical phases), x2 = 0.671	726
9600 kPa, Fluid (supercritical or subcritical phases), x2 = 0.901	607
9630 kPa, Fluid (supercritical or subcritical phases), x2 = 0.916	603
9630 kPa, Fluid (supercritical or subcritical phases), x2 = 0.939	545
9670 kPa, Fluid (supercritical or subcritical phases), x2 = 0.87	638
9740 kPa, Fluid (supercritical or subcritical phases), x2 = 0.214	631
9740 kPa, Fluid (supercritical or subcritical phases), x2 = 0.901	613
9790 kPa, Fluid (supercritical or subcritical phases), x2 = 0.939	558
9920 kPa, Fluid (supercritical or subcritical phases), x2 = 0.901	619
9940 kPa, Fluid (supercritical or subcritical phases), x2 = 0.916	615
9970 kPa, Fluid (supercritical or subcritical phases), x2 = 0.939	572
10000 kPa, Fluid (supercritical or subcritical phases), x2 = 0.901	622
10010 kPa, Fluid (supercritical or subcritical phases), x2 = 0.87	645
10080 kPa, Fluid (supercritical or subcritical phases), x2 = 0.901	626
10160 kPa, Fluid (supercritical or subcritical phases), x2 = 0.901	628
10170 kPa, Fluid (supercritical or subcritical phases), x2 = 0.939	586
10240 kPa, Fluid (supercritical or subcritical phases), x2 = 0.36	651
10270 kPa, Fluid (supercritical or subcritical phases), x2 = 0.901	633
10290 kPa, Fluid (supercritical or subcritical phases), x2 = 0.791	697
10300 kPa, Fluid (supercritical or subcritical phases), x2 = 0.916	628
10420 kPa, Fluid (supercritical or subcritical phases), x2 = 0.87	654
10420 kPa, Fluid (supercritical or subcritical phases), x2 = 0.901	637
10440 kPa, Fluid (supercritical or subcritical phases), x2 = 0.939	600
10620 kPa, Fluid (supercritical or subcritical phases), x2 = 0.901	642
10710 kPa, Fluid (supercritical or subcritical phases), x2 = 0.671	734
10730 kPa, Fluid (supercritical or subcritical phases), x2 = 0.916	642
10760 kPa, Fluid (supercritical or subcritical phases), x2 = 0.901	647
10790 kPa, Fluid (supercritical or subcritical phases), x2 = 0.939	616
10850 kPa, Fluid (supercritical or subcritical phases), x2 = 0.87	661
10950 kPa, Fluid (supercritical or subcritical phases), x2 = 0.901	652
11040 kPa, Fluid (supercritical or subcritical phases), x2 = 0.791	703
11060 kPa, Fluid (supercritical or subcritical phases), x2 = 0.214	634
11220 kPa, Fluid (supercritical or subcritical phases), x2 = 0.901	656
11230 kPa, Fluid (supercritical or subcritical phases), x2 = 0.36	654
11250 kPa, Fluid (supercritical or subcritical phases), x2 = 0.939	635
11260 kPa, Fluid (supercritical or subcritical phases), x2 = 0.916	657
11320 kPa, Fluid (supercritical or subcritical phases), x2 = 0.939	639
11440 kPa, Fluid (supercritical or subcritical phases), x2 = 0.901	661
11450 kPa, Fluid (supercritical or subcritical phases), x2 = 0.87	670
11610 kPa, Fluid (supercritical or subcritical phases), x2 = 0.901	666
11890 kPa, Fluid (supercritical or subcritical phases), x2 = 0.901	672
11910 kPa, Fluid (supercritical or subcritical phases), x2 = 0.791	713
11930 kPa, Fluid (supercritical or subcritical phases), x2 = 0.916	672
11970 kPa, Fluid (supercritical or subcritical phases), x2 = 0.87	678
11980 kPa, Fluid (supercritical or subcritical phases), x2 = 0.671	740
12080 kPa, Fluid (supercritical or subcritical phases), x2 = 0.901	675
12440 kPa, Fluid (supercritical or subcritical phases), x2 = 0.901	681
12460 kPa, Fluid (supercritical or subcritical phases), x2 = 0.36	656
12560 kPa, Fluid (supercritical or subcritical phases), x2 = 0.214	638
12580 kPa, Fluid (supercritical or subcritical phases), x2 = 0.87	687
12760 kPa, Fluid (supercritical or subcritical phases), x2 = 0.901	686
12790 kPa, Fluid (supercritical or subcritical phases), x2 = 0.916	687
13000 kPa, Fluid (supercritical or subcritical phases), x2 = 0.901	690
13060 kPa, Fluid (supercritical or subcritical phases), x2 = 0.791	721
13280 kPa, Fluid (supercritical or subcritical phases), x2 = 0.901	695
13290 kPa, Fluid (supercritical or subcritical phases), x2 = 0.87	695
13530 kPa, Fluid (supercritical or subcritical phases), x2 = 0.901	698
13560 kPa, Fluid (supercritical or subcritical phases), x2 = 0.36	659
13800 kPa, Fluid (supercritical or subcritical phases), x2 = 0.671	749
13800 kPa, Fluid (supercritical or subcritical phases), x2 = 0.901	701
13860 kPa, Fluid (supercritical or subcritical phases), x2 = 0.214	640
13860 kPa, Fluid (supercritical or subcritical phases), x2 = 0.916	705
14040 kPa, Fluid (supercritical or subcritical phases), x2 = 0.87	704
14050 kPa, Fluid (supercritical or subcritical phases), x2 = 0.901	705
14440 kPa, Fluid (supercritical or subcritical phases), x2 = 0.901	712
14470 kPa, Fluid (supercritical or subcritical phases), x2 = 0.916	715
14510 kPa, Fluid (supercritical or subcritical phases), x2 = 0.791	732
14700 kPa, Fluid (supercritical or subcritical phases), x2 = 0.901	714
14730 kPa, Fluid (supercritical or subcritical phases), x2 = 0.87	713
14810 kPa, Fluid (supercritical or subcritical phases), x2 = 0.36	662
15220 kPa, Fluid (supercritical or subcritical phases), x2 = 0.214	642
Liquid, Other PVT measurement, x2 = 0.214	603
Liquid, Other PVT measurement, x2 = 0.36	632
Liquid, Other PVT measurement, x2 = 0.671	702
Liquid, Other PVT measurement, x2 = 0.791	651
Liquid, Other PVT measurement, x2 = 0.87	573
Liquid, Other PVT measurement, x2 = 0.901	511
